Results taken from the kinase profiling compilation of Christmann-Franck et al. (2016).

Tests used:
RPS6KA1 KD1 KD2 (human) = RPS6KA1 KD1 KD2 (human) (UniProt Q15418)
EPHA4 (human) = EPHA4 (human) (UniProt P54764)
YES1 (human) = YES1 (human) (UniProt P07947)
MAPK3 (human) = MAPK3 (human) (UniProt P27361)
PRKACB (human) = PRKACB (human) (UniProt P22694)
CDKL2 (human) = CDKL2 (human) (UniProt Q92772)
MTOR (human) = MTOR (human) (UniProt P42345)
STK16 (human) = STK16 (human) (UniProt O75716)
CSNK1A1 (human) = CSNK1A1 (human) (UniProt P48729)
BMP2K (human) = BMP2K (human) (UniProt Q9NSY1)
RPS6KA3 KD1 KD2 (human) = RPS6KA3 KD1 KD2 (human) (UniProt P51812)
MAP2K6 (human) = MAP2K6 (human) (UniProt P52564)
LYN (human) = LYN (human) (UniProt P07948)
RIPK2 (human) = RIPK2 (human) (UniProt O43353)
TEC (human) = TEC (human) (UniProt P42680)
JAK3 JH1 JH2 (human) = JAK3 JH1 JH2 (human) (UniProt P52333)
NEK9 (human) = NEK9 (human) (UniProt Q8TD19)
PIK3C2B (human) = PIK3C2B (human) (UniProt O00750)
NEK7 (human) = NEK7 (human) (UniProt Q8TDX7)
MARK3 (human) = MARK3 (human) (UniProt P27448)
ATM (human) = ATM (human) (UniProt Q13315)
WEE1 (human) = WEE1 (human) (UniProt P30291)
STK4 (human) = STK4 (human) (UniProt Q13043)
AAK1 (human) = AAK1 (human) (UniProt Q2M2I8)
MAPK8 (human) = MAPK8 (human) (UniProt P45983)
PTK2 (human) = PTK2 (human) (UniProt Q05397)
ADCK3 (human) = ADCK3 (human) (UniProt Q8NI60)
PRKDC (human) = PRKDC (human) (UniProt P78527)
PKN1 (human) = PKN1 (human) (UniProt Q16512)
PRKCD (human) = PRKCD (human) (UniProt Q05655)
TAOK3 (human) = TAOK3 (human) (UniProt Q9H2K8)
TAOK2 (human) = TAOK2 (human) (UniProt Q9UL54)
JAK2 JH1 JH2 (human) = JAK2 JH1 JH2 (human) (UniProt O60674)
CAMK2D (human) = CAMK2D (human) (UniProt Q13557)
BTK (human) = BTK (human) (UniProt Q06187)
CSNK1G3 (human) = CSNK1G3 (human) (UniProt Q9Y6M4)
TESK1 (human) = TESK1 (human) (UniProt Q15569)
CSNK2A2 (human) = CSNK2A2 (human) (UniProt P19784)
TNK2 (human) = TNK2 (human) (UniProt Q07912)
PDPK1 (human) = PDPK1 (human) (UniProt O15530)
ULK3 (human) = ULK3 (human) (UniProt Q6PHR2)
MAPK14 (human) = MAPK14 (human) (UniProt Q16539)
BRAF (human) = BRAF (human) (UniProt P15056)
GAK (human) = GAK (human) (UniProt O14976)

Sequence of MAPK3 (human) (P27361 whole entry, looked up): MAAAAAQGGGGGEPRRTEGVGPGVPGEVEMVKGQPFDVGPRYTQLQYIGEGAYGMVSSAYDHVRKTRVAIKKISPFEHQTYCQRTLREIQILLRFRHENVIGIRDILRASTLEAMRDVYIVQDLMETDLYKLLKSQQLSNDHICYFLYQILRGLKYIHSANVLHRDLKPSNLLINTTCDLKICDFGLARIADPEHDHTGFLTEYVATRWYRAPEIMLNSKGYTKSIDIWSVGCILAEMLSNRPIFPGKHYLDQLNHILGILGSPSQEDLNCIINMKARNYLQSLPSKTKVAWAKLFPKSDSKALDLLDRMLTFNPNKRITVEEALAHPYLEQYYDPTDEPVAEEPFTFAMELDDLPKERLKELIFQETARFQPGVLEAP
Sequence of RPS6KA1 KD1 KD2 (human) (Q15418 whole entry, looked up): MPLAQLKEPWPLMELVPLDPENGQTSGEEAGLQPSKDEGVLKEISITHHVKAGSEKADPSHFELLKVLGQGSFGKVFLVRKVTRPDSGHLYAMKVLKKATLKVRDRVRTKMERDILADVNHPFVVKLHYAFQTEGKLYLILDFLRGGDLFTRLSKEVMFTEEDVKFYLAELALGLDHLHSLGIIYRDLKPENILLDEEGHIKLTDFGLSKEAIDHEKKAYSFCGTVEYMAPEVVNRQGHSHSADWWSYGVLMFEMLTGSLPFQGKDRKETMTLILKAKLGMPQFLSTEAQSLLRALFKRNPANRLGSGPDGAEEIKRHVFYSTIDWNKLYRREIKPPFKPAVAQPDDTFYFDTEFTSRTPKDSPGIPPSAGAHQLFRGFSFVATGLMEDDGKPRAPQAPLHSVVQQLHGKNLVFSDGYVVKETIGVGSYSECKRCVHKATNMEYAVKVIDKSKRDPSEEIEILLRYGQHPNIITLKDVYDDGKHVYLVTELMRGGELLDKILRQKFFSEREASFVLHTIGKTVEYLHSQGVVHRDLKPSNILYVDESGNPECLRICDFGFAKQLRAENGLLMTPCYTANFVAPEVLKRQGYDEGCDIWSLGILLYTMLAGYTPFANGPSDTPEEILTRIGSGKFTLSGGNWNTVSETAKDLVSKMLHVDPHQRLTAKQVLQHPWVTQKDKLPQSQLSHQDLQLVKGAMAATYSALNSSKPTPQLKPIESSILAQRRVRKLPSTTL
Sequence of CSNK1G3 (human) (Q9Y6M4 whole entry, looked up): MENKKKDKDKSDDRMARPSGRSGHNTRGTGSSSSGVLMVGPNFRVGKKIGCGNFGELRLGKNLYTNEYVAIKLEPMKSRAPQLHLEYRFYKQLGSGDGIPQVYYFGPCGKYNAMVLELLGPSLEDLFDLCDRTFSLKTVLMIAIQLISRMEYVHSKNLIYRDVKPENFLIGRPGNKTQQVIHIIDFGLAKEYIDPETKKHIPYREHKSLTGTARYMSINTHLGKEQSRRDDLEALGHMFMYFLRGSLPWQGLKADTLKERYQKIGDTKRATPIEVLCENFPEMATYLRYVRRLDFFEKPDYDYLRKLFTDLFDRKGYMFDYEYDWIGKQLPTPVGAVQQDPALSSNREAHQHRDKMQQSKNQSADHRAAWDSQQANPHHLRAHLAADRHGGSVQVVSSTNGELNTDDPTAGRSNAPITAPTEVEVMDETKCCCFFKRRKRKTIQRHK
Sequence of EPHA4 (human) (P54764 whole entry, looked up): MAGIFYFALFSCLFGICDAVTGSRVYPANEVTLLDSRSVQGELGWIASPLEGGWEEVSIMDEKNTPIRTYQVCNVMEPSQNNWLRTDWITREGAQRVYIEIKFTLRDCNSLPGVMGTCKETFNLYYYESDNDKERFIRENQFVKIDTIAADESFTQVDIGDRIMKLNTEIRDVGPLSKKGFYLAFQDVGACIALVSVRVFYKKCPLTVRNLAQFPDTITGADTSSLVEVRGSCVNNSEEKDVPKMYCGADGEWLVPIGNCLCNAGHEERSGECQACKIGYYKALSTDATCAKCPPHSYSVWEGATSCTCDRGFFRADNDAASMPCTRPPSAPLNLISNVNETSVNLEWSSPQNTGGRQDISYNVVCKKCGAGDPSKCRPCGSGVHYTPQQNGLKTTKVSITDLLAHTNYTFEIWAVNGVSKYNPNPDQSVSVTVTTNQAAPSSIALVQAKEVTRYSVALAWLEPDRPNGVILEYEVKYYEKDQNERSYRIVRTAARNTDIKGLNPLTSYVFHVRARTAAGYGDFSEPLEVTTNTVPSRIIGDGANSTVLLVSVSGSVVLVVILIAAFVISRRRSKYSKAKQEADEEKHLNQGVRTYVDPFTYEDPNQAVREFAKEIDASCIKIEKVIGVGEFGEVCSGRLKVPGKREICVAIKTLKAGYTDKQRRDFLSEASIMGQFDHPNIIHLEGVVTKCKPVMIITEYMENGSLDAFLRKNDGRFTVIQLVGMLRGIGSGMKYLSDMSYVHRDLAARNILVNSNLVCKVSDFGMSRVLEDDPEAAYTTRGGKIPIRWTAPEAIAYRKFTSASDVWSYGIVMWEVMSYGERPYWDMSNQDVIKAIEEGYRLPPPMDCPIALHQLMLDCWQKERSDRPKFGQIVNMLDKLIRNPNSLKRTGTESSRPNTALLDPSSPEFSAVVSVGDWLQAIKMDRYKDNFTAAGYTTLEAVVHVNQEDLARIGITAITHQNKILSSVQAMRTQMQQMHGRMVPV
Sequence of RIPK2 (human) (O43353 whole entry, looked up): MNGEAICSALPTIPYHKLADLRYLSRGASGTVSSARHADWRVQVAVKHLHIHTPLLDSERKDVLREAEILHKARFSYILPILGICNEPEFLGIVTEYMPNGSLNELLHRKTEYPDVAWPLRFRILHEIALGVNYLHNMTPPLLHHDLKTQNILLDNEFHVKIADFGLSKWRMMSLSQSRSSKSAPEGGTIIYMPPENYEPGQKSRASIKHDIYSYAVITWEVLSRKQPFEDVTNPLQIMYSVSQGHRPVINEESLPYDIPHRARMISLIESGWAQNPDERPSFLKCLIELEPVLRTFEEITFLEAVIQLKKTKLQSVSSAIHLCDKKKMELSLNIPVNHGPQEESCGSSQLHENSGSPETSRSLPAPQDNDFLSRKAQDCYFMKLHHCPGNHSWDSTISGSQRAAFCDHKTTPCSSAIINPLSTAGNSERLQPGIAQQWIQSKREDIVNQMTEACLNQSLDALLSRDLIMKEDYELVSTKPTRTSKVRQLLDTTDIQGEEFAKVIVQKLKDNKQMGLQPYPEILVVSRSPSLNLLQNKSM
Sequence of TAOK2 (human) (Q9UL54 whole entry, looked up): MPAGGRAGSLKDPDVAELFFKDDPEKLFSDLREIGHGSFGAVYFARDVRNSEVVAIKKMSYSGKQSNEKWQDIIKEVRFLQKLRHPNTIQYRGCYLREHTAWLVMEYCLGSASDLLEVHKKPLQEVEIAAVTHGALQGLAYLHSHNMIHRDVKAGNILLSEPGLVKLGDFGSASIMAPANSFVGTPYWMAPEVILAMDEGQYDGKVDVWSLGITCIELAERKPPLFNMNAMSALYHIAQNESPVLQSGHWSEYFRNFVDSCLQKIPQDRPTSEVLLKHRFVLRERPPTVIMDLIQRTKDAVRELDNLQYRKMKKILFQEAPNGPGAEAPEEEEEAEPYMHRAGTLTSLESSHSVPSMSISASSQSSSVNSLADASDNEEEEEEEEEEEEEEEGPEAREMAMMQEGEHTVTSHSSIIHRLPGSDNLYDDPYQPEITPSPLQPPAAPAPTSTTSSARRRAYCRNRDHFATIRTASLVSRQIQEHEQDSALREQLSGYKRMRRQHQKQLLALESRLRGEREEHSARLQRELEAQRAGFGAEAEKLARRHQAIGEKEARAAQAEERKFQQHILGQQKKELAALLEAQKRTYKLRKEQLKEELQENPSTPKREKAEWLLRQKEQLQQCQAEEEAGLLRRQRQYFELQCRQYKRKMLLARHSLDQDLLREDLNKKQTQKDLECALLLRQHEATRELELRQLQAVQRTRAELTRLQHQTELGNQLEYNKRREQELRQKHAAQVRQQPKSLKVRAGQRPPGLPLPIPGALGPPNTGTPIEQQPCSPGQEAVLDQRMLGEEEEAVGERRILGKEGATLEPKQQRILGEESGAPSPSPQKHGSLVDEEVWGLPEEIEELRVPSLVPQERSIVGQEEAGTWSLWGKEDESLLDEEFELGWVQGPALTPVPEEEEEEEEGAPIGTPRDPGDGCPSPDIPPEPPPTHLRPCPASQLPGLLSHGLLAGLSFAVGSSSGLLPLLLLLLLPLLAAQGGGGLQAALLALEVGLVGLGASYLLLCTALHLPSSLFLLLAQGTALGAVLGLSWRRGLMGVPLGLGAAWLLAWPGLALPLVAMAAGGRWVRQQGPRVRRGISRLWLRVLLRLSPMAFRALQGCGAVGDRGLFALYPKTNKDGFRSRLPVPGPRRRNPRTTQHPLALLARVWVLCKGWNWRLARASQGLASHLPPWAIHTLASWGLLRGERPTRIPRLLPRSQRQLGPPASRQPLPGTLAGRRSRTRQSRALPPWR
Sequence of MAPK8 (human) (P45983 whole entry, looked up): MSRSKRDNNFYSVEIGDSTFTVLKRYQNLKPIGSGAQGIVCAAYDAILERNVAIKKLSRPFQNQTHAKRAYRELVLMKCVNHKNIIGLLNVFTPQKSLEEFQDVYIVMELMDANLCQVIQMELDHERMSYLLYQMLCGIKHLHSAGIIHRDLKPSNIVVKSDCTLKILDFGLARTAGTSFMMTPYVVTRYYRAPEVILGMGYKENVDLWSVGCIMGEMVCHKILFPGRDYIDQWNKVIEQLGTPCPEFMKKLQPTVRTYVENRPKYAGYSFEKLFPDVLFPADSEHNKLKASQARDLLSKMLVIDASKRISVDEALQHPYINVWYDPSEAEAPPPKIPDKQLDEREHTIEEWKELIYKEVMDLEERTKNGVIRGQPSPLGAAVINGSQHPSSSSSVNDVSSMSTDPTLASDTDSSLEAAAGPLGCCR
Sequence of NEK7 (human) (Q8TDX7 whole entry, looked up): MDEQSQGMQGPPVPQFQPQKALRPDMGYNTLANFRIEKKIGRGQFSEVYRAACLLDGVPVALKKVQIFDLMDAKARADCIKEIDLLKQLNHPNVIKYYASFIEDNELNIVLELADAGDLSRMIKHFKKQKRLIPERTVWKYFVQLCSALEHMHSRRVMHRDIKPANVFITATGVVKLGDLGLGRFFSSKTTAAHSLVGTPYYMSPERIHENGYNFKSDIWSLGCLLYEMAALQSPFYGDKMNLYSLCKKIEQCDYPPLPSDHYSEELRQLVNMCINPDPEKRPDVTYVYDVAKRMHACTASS

IC50 (RPS6KA1 KD1 KD2 (human)): 8.74 µM
IC50 (EPHA4 (human)): > 10 µM
IC50 (YES1 (human)): > 10 µM
IC50 (MAPK3 (human)): > 10 µM
IC50 (PRKACB (human)): > 10 µM
IC50 (CDKL2 (human)): > 10 µM
IC50 (MTOR (human)): > 10 µM
IC50 (STK16 (human)): > 10 µM
IC50 (CSNK1A1 (human)): 8.41 µM
IC50 (BMP2K (human)): > 10 µM
IC50 (RPS6KA3 KD1 KD2 (human)): > 10 µM
IC50 (MAP2K6 (human)): > 10 µM
IC50 (LYN (human)): > 10 µM
IC50 (RIPK2 (human)): > 10 µM
IC50 (TEC (human)): > 10 µM
IC50 (JAK3 JH1 JH2 (human)): > 10 µM
IC50 (PIK3C2B (human)): > 10 µM
IC50 (NEK7 (human)): > 10 µM
IC50 (MARK3 (human)): 3000 nM
IC50 (ATM (human)): > 10 µM
IC50 (WEE1 (human)): > 10 µM
IC50 (STK4 (human)): > 10 µM
IC50 (AAK1 (human)): > 10 µM
IC50 (MAPK8 (human)): > 10 µM
IC50 (PTK2 (human)): > 10 µM
IC50 (ADCK3 (human)): > 10 µM
IC50 (PRKDC (human)): > 10 µM
IC50 (PKN1 (human)): > 10 µM
IC50 (PRKCD (human)): 1190 nM
IC50 (TAOK3 (human)): 9.47 µM
IC50 (TAOK2 (human)): 8.47 µM
IC50 (JAK2 JH1 JH2 (human)): > 10 µM
IC50 (CAMK2D (human)): 7.67 µM
IC50 (BTK (human)): > 10 µM
IC50 (CSNK1G3 (human)): > 10 µM
IC50 (TESK1 (human)): > 10 µM
IC50 (CSNK2A2 (human)): > 10 µM
IC50 (TNK2 (human)): > 10 µM
IC50 (PDPK1 (human)): > 10 µM
IC50 (ULK3 (human)): > 10 µM
IC50 (MAPK14 (human)): > 10 µM
IC50 (BRAF (human)): > 10 µM
IC50 (GAK (human)): > 10 µM
SMILES: CN1CC[C@H](c2c(O)cc(O)c3c(=O)cc(-c4ccccc4Cl)oc23)[C@H](O)C1
IC50 (NEK9 (human)): > 10 µM
